Activity calls are given as the source filed them. The rule behind the calls is not given here.
Columns and labels:
Assay type in all cases: nucleic-acid assay
Nucleic Acid [1] = experiment: Binding activity at antiterminator RNA AM1A(C11U) after 10 mins
Nucleic Acid [2] = experiment: Binding activity at antiterminator RNA AM1A relative to methyl 2-((4R,5S)-4-benzyl-2-oxo-5-((2-phenylacetoxy)methyl)oxazolidin-3-yl)benzoate after 10 mins
Nucleic Acid [3] = experiment: Binding activity at antiterminator RNA AM1A(C11U) upto 200 uM after 10 mins
Nucleic Acid [4] = experiment: Binding activity at antiterminator RNA AM1A upto 200 uM after 10 mins
Nucleic Acid [5] = experiment: Binding activity at antiterminator RNA AM1A after 10 mins
Nucleic Acid [6] = experiment: Binding activity at antiterminator RNA AM1A(C11U) after 120 mins

## CCCCCCCC(=O)OC[C@H]1OC(=O)N(CCCC)[C@@H]1CCCc1ccccc1
Nucleic Acid [1]
  Activity: 0.69
Nucleic Acid [2]
  Activity: 0.56

## CCCCN1C(=O)O[C@H](COC(=O)Cc2ccccc2)[C@H]1CC1CCCCC1
Nucleic Acid [1]
  Activity: 0.78
Nucleic Acid [2]
  Activity: 0.58

## CCCCN1C(=O)O[C@H](COC(=O)C2CCCCC2)[C@H]1Cc1ccccc1
Nucleic Acid [1]
  Activity: 0.59
Nucleic Acid [2]
  Activity: 0.48

## COC(=O)c1ccccc1N1C(=O)O[C@H](COC(=O)C2CCCCC2)[C@H]1Cc1ccccc1
Nucleic Acid [1]
  Activity: 1.19
Nucleic Acid [2]
  Activity: 0.64

## CCCCCCCC(=O)OC[C@H]1OC(=O)N(c2ccc(OC)cc2)[C@@H]1Cc1ccccc1
Nucleic Acid [1]
  Activity: 0.68
Nucleic Acid [2]
  Activity: 0.43

## CCCCCCCC(=O)OC[C@H]1OC(=O)N[C@@H]1Cc1ccccc1
Nucleic Acid [3]
  Activity: inactive
Nucleic Acid [4]
  Activity: inactive

## CCCCN1C(=O)O[C@H](COC(=O)Cc2ccccc2)[C@H]1CCCc1ccccc1
Nucleic Acid [1]
  Activity: 0.7
Nucleic Acid [2]
  Activity: 0.72

## COC(=O)c1ccccc1N1C(=O)O[C@H](COC(=O)C2CCCCC2)[C@H]1CCCc1ccccc1
Nucleic Acid [1]
  Activity: 0.78
Nucleic Acid [2]
  Activity: 0.71

## CCCCN1C(=O)O[C@H](COC(=O)C2CCCCC2)[C@H]1CCCc1ccccc1
Nucleic Acid [1]
  Activity: 0.78
Nucleic Acid [2]
  Activity: 0.65

## CCCCCCCC(=O)OC[C@H]1OC(=O)N(c2ccccc2C(=O)OC)[C@@H]1Cc1ccccc1
Nucleic Acid [1]
  Activity: 1.06
Nucleic Acid [2]
  Activity: 1.19

## CCCCN1C(=O)O[C@H](COC(=O)Cc2ccccc2)[C@H]1Cc1ccccc1
Nucleic Acid [1]
  Activity: 0.36
Nucleic Acid [2]
  Activity: 0.48

## COc1ccc(N2C(=O)O[C@H](COC(=O)C3CCCCC3)[C@H]2CC2CCCCC2)cc1
Nucleic Acid [1]
  Activity: 0.82
Nucleic Acid [2]
  Activity: 0.61

## COC(=O)c1ccccc1N1C(=O)O[C@H](COC(=O)C2CCCCC2)[C@H]1CC1CCCCC1
Nucleic Acid [1]
  Activity: 0.8
Nucleic Acid [2]
  Activity: 0.61

## COc1ccc(N2C(=O)O[C@H](COC(=O)C3CCCCC3)[C@H]2Cc2ccccc2)cc1
Nucleic Acid [1]
  Activity: 0.77
Nucleic Acid [2]
  Activity: 0.73

## CCCCCCCC(=O)OC[C@H]1OC(=O)N(c2ccccc2C(=O)OC)[C@@H]1CC1CCCCC1
Nucleic Acid [1]
  Activity: 0.97
Nucleic Acid [2]
  Activity: 0.47

## O=C(Cc1ccccc1)OC[C@H]1OC(=O)N[C@@H]1Cc1ccccc1
Nucleic Acid [5]
  Kd: 9 µM
Nucleic Acid [1]
  Kd: 125 µM

## COC(=O)c1ccccc1N1C(=O)O[C@H](COC(=O)Cc2ccccc2)[C@H]1Cc1ccccc1
Nucleic Acid [5]
  Activity: 1
Nucleic Acid [1]
  Activity: 1.47

## CCCCCCC(=O)OC[C@H]1OC(=O)N[C@@H]1Cc1ccccc1
Nucleic Acid [5]
  Kd: 10 µM
Nucleic Acid [6]
  Kd: 14.3 µM

## COc1ccc(N2C(=O)O[C@H](COC(=O)Cc3ccccc3)[C@H]2CC2CCCCC2)cc1
Nucleic Acid [1]
  Activity: 1.05
Nucleic Acid [2]
  Activity: 0.71

## COC(=O)c1ccccc1N1C(=O)O[C@H](COC(=O)Cc2ccccc2)[C@H]1CC1CCCCC1
Nucleic Acid [1]
  Activity: 0.77
Nucleic Acid [2]
  Activity: 0.39

## CCCCN1C(=O)O[C@H](COC(=O)C2CCCCC2)[C@H]1CC1CCCCC1
Nucleic Acid [1]
  Activity: 0.7
Nucleic Acid [2]
  Activity: 0.54

## CCCCCCCC(=O)OC[C@H]1OC(=O)N(CCCC)[C@@H]1CC1CCCCC1
Nucleic Acid [1]
  Activity: 1.05
Nucleic Acid [2]
  Activity: 0.73

## CCCCCCCC(=O)OC[C@H]1OC(=O)N(c2ccccc2C(=O)OC)[C@@H]1CCCc1ccccc1
Nucleic Acid [1]
  Activity: 0.76
Nucleic Acid [2]
  Activity: 1.21

## CCCCCCCC(=O)OC[C@H]1OC(=O)N(c2ccc(OC)cc2)[C@@H]1CCCc1ccccc1
Nucleic Acid [1]
  Activity: 0.72
Nucleic Acid [2]
  Activity: 0.65

## CCCCCCCC(=O)OC[C@H]1OC(=O)N(CCCC)[C@@H]1Cc1ccccc1
Nucleic Acid [1]
  Activity: 1.37
Nucleic Acid [2]
  Activity: 1.16

## COC(=O)c1ccccc1N1C(=O)O[C@H](COC(=O)Cc2ccccc2)[C@H]1CCCc1ccccc1
Nucleic Acid [1]
  Activity: 1.12
Nucleic Acid [2]
  Activity: 0.79

## CCCCCCCC(=O)OC[C@H]1OC(=O)N(c2ccc(OC)cc2)[C@@H]1CC1CCCCC1
Nucleic Acid [1]
  Activity: 0.78
Nucleic Acid [2]
  Activity: 0.58

## COc1ccc(N2C(=O)O[C@H](COC(=O)Cc3ccccc3)[C@H]2CCCc2ccccc2)cc1
Nucleic Acid [2]
  Activity: 0.75

## COc1ccc(N2C(=O)O[C@H](COC(=O)C3CCCCC3)[C@H]2CCCc2ccccc2)cc1
Nucleic Acid [1]
  Activity: 0.7
Nucleic Acid [2]
  Activity: 0.64

## COc1ccc(N2C(=O)O[C@H](COC(=O)Cc3ccccc3)[C@H]2Cc2ccccc2)cc1
Nucleic Acid [5]
  Kd: 3.4 µM
Nucleic Acid [1]
  Activity: 0.23
  Kd: 25 µM
Nucleic Acid [2]
  Activity: 0.81
